Measured values reported in patent publication US9546179B2, “Heterocycle amido alkyloxy substituted quinazoline derivative and use thereof” (priority 2011, dated 2017).

The compounds below were run against T1, receptor tyrosine kinase EGFR (Homo sapiens, UniProt P00533) (assay: Inhibitory effect on receptor tyrosine kinase EGFR (ELISA, Poly(Glu, Tyr)4:1, PY99 antibody)). Conditions: ATP 4 μM, 1 hour at 37° C.
T1 construct: purchased Shanghai 3bio Technology Co., Ltd. Lot No. 4018780925
Assay type: biochemical
Method: Poly(Glu, Tyr)4:1 was diluted into 100 μg/ml by PBS without potassium. Enzyme label plate was coated with 37 μl/well at 37° C. overnight,
The liquid in the wells was removed. The plate was rinsed by T-PBS for 5 minutes, and dried at 37° C. after repeated 3 times.
The testing sample was diluted to the concentration concerned by reaction buffer solution, and added into the wells of the coated enzyme label plate. The concentration diluted should realize 1.0000 μg/ml, 0.1250 μg/ml, 0.0156 μg/ml, 0.00195 μg/ml and 0.00024 μg/ml in the 100 μl reaction.
Adding in ATP solution (4 μM of final concentration) diluted by reaction buffer solution,
Finally, the tyrosine kinase diluted by reaction buffer solution was added, and forming the reaction with 100 μl total volume.
Meanwhile, negative control wells and enzyme-free control wells were prepared. The reaction was kept in the dark wet box for 1 hour at 37° C. The plate was rinsed by T-PBS for three times after the reaction ended, and blocked by 1% BSA […] for 30 min, and then, PY99 antibody (1:1000 diluted by 0.05% PBST with 1% BSA) was added in 100 μl/well. After incubated at 37° C. for 30 minutes, the plate was rinsed by T-PBS for three times, and the goat anti-mouse IgG marked with HRP (1 mg/ml 1:1000 diluted by 0.05% PBST with 1% BSA) was then added in 100 μl/well. After incubated at 37° C. for 30 minutes, the plate was rinsed by T-PBS for three times.
Colorimetric solution OPD was added in 100 μl/well for 20 minutes' reaction in the dark side at the room temperature. Colorimetric substrate solution OPD was the solution of 0.1 mol/L citric acid-disodium hydrogen phosphate buffer (pH 5.0) with 20 mmol/L OPD and 12 mmol/L H2O2 (freshly prepared when using).
50 μl of 2M H2SO4 (2 mol/L sulfuric acid containing 0.1 mol/L sodium sulfate) was added in to terminate the reaction, and the A492 value was read with adjustable wavelength micro late enzyme-labeling instrument VERSAmax.
The inhibition rate of samples is calculated by the following formula: […]

T1 sequence (P00533 25-1210): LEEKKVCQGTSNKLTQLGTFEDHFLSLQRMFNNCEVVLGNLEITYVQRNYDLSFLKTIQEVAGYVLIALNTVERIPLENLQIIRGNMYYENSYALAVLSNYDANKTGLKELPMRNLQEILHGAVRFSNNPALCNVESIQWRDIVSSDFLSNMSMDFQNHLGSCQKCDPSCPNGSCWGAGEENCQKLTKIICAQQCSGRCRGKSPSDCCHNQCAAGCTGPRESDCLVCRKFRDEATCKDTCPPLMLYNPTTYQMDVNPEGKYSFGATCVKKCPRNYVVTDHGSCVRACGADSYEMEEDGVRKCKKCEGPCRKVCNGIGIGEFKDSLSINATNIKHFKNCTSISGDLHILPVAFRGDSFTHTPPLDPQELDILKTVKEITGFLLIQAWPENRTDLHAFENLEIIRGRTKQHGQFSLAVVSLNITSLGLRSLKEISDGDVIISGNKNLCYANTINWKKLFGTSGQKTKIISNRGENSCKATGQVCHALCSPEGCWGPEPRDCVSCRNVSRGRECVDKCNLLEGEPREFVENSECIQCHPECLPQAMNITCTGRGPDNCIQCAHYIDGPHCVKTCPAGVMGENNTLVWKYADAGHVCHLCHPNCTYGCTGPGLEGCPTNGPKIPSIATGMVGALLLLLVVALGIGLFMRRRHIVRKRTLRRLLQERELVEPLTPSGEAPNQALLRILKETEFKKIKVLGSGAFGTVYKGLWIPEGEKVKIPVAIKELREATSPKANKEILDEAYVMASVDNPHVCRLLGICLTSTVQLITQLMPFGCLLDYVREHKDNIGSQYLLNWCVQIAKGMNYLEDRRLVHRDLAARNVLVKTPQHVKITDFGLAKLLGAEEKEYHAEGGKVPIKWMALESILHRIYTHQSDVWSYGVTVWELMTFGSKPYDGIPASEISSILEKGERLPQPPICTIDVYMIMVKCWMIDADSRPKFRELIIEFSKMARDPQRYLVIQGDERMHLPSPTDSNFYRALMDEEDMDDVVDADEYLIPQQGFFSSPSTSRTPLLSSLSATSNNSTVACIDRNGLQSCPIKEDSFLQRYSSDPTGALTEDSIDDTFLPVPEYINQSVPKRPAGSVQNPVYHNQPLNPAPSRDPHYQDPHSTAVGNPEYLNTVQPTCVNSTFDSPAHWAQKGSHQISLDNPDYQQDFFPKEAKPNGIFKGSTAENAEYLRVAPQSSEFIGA

Row | IC50 | SMILES
1 | 0.01 to 0.1 µM | C#Cc1cccc(Nc2ncnc3cc(OC)c(OCCCN4CCC5(CC4)CNC(=O)C5)cc23)c1 [Example 43, 4-(3′-ethynylphenylamino)-6-[3-(2,8-diazaspiro[4.5]decane-3-ketone-8-yl)-propoxy]-7-methoxyquinazoline]
2 | 0.1 to 1 µM | C#Cc1cccc(Nc2ncnc3cc(OC)c(OCCCN4C5CCC4COC5)cc23)c1 [Example 42, 4-(3′-ethynylphenylamino)-6-[3-(3-oxa-8-azabicyclo[3.2.1]octane-8-yl)-propoxy]-7-methoxyquinazoline]
3 | 0.0001 to 0.01 µM | COc1cc2ncnc(Nc3cccc(Cl)c3F)c2cc1OCCCN1CCC2(C1)CN(C)C(=O)O2 (stereo not drawn) [Example 35, 4-(3′-chloro-2′-fluorophenylamino)-6-[3-(3-methyl-1-oxa-3,7-diazaspiro[4.4]nonane-2-ketone-7-yl)-propoxy]-7-methoxycquinazoline]
4 | 0.01 to 0.1 µM | COc1cc2ncnc(Nc3ccc(F)c(Cl)c3)c2cc1OCCCN1CCC2(CC1)CNC(=O)C2 [Example 94, 4-(3′-chloro-4′-fluorophenylamino)-6-[3-(2,8-diazaspiro[4.5]decane-3-ketone-8-yl)-propoxy]-7-methoxyquinazoline]
5 | 0.0001 to 0.01 µM | COc1cc2ncnc(Nc3cccc(Cl)c3F)c2cc1OCCCN1CCC2(CC1)CNC(=O)O2 [Example 34, 4-(3′-chloro-2′-fluorophenylamino)-6-[3-(1-oxa-3,8-diazaspiro[4.5]decane-2-ketone-8-yl)-propoxy]-7-methoxyquinazoline]
6 | 0.01 to 0.1 µM | COc1cc2ncnc(Nc3ccc(F)c(Cl)c3)c2cc1OCCCN1CCC2(CC1)CCN(C)C2=O [Example 85]
7 | 0.01 to 0.1 µM | C#Cc1cccc(Nc2ncnc3cc(OC)c(OCCCN4CCC5(CC4)CNC(=O)O5)cc23)c1 [Example 46, 4-(3′-ethynylphenylamino)-6-[3-(1-oxa-3,8-diazaspiro[4.5]decane-2-ketone-8-yl)-propoxy]-7-methoxyquinazoline]
8 | 0.01 to 0.1 µM | COc1cc2ncnc(Nc3ccc(F)c(Cl)c3)c2cc1OCCCN1CCC2(CCN(C)C2)C1 (stereo not drawn) [Example 76, 4-(3′-chloro-4′-fluorophenylamino)-6-[3-(7-methyl-2,7-diazaspiro[4.4]nonane-2-yl)-propoxy]-7-methoxyquinazoline]
9 | 0.01 to 0.1 µM | COc1cc2ncnc(Nc3ccc(F)c(Cl)c3)c2cc1OCCN1CCC2(C1)CN(C)C(=O)O2 (stereo not drawn) [Example 59, 4-(3′-chloro-4′-fluorophenylamino)-6-[2-(3-methyl-1-oxa-3,7-diazaspiro[4.4]nonane-2-ketone-7-yl)-oxethyl]-7-methoxyquinazoline]
10 | 0.1 to 1 µM | COc1cc2ncnc(Nc3ccc(F)c(Cl)c3)c2cc1OCCN1CCC2(CCNC2=O)C1 (stereo not drawn) [Example 55, 4-(3′-chloro-4′-fluorophenylamino)-6-[2-(2,7-diazaspiro[4.4]-nonane-1-ketone-7-yl)-oxethyl]-7-methoxyquinazoline]
11 | 0.01 to 0.1 µM | C#Cc1cccc(Nc2ncnc3cc(OC)c(OCCCN4CCC5(CCNC5=O)C4)cc23)c1 (stereo not drawn) [Example 70, 4-(3′-ethynylphenylamino)-6-[3-(2,7-diazaspiro[4.4]-nonane-1-ketone-7-yl)-propoxy]-7-methoxyquinazoline]
12 | 0.01 to 0.1 µM | COc1cc2ncnc(Nc3ccc(F)c(Cl)c3)c2cc1OCCN1CC2(C1)CN(C)C(=O)O2 [Example 61, 4-(3′-chloro-4′-fluorophenylamino)-6-[2-(7-methyl-5-oxa-2,7-diazaspiro[3.4]octane-6-ketone-2-yl)-oxethyl]-7-methoxyquinazoline]
13 | 0.01 to 0.1 µM | COc1cc2ncnc(Nc3cccc(Cl)c3F)c2cc1OCCCN1CCC2(CCN(C)C2=O)C1 (stereo not drawn) [Example 30, 4-(3′-chloro-2′-fluorophenylamino)-6-[3-(2-methyl-2,7-diazaspiro[4.4]nonane-1-ketone-7-yl)-propoxy]-7-methoxyquinazoline]
14 | 0.01 to 0.1 µM | C#Cc1cccc(Nc2ncnc3cc(OC)c(OCCCN4CCC5(CCN(C)C5)C4)cc23)c1 (stereo not drawn) [Example 68, 4-(3′-ethynylphenylamino)-6-[3-(7-methyl-2,7-diazaspiro[4.4]nonyl)-propoxy]-7-methoxyquinazoline]
15 | 0.01 to 0.1 µM | COc1cc2ncnc(Nc3ccc(F)c(Cl)c3)c2cc1OCCCN1CC[C@H]2OCC[C@H]21 (relative stereo) [Example 78, 4-(3′-chloro-4′-fluorophenylamino)-6-[3-(cis-hexahydrofuro[3,2-b]pyrrole-4-yl)-propoxy]-7-methoxyquinazoline]
16 | 0.1 to 1 µM | COc1cc2ncnc(Nc3ccc(F)c(Cl)c3)c2cc1OCCN1CCC2(CC1)CNC(=O)C2 [Example 63, 4-(3′-chloro-4′-fluorophenylamino)-6-[2-(2,8-diazaspiro[4.5]decane-3-ketone-8-yl)-oxethyl]-7-methoxyquinazoline]
17 | 0.1 to 1 µM | COc1cc2ncnc(Nc3ccc(F)c(Cl)c3)c2cc1OCCCN1CC2CCC(C1)O2 [Example 93, 4-(3′-chloro-4′-fluorophenylamino)-6-[3-(8-oxa-3-aza-azabicyclo[3.2.1]octane-3-yl)-propoxy]-7-methoxyquinazoline]
18 | 0.01 to 0.1 µM | COc1cc2ncnc(Nc3cc(Cl)ccc3F)c2cc1OCCCN1CCC2(CCN(C(C)=O)C2)C1 (stereo not drawn) [Example 19, 4-(5′-chloro-2′-fluorophenylamino)-6-[3-(7-acetyl-2,7-diazaspiro[4.4]-nonane-2-yl)-propoxy]-7-methoxyquinazoline]
19 | 0.0001 to 0.01 µM | COc1cc2ncnc(Nc3ccc(F)c(Cl)c3)c2cc1OCCCN1CC2(CNC(=O)O2)C1 [Example 90, 4-(3′-chloro-4′-fluorophenylamino)-6-[3-(5-oxa-2,7-diazaspiro[3.4]octane-6-ketone-2-yl)-propoxy]-7-methoxyquinazoline]
20 | > 1 µM | COc1cc2ncnc(Nc3ccc(F)c(Cl)c3)c2cc1OCCCN1CCC2(CCCN(C(=O)OC(C)(C)C)C2)C1 (stereo not drawn) [Example 77, 4-(3′-chloro-4′-4-fluorophenylamino)-6-[3-(7-tertbutyloxycarbonyl-2,7-diazaspiro[4.5]decane-2-yl)-propoxy]-7-methoxyquinazoline]
21 | 0.1 to 1 µM | COc1cc2ncnc(Nc3ccc(F)c(Cl)c3)c2cc1OCCN1CC2(CNC(=O)O2)C1 [Example 60, 4-(3′-chloro-4′-fluorophenylamino)-6-[2-(5-oxa-2,7-diazaspiro[3.4]octane-6-ketone-2-yl)-oxethyl]-7-methoxyquinazoline]
22 | 0.01 to 0.1 µM | COc1cc2ncnc(Nc3ccc(F)c(Cl)c3)c2cc1OCCN1CC2(CCOCC2)C1 [Example 53, 4-(3′-chloro-4′-fluorophenylamino)-6-[3-(7-oxa-2-azaspiro[3.5]nonane-2-yl)-oxethyl]-7-methoxyquinazoline]
23 | 0.01 to 0.1 µM | COc1cc2ncnc(Nc3cc(Cl)ccc3F)c2cc1OCCCN1CC2(CCOCC2)C1 [Example 18, 4-(5′-chloro-2′-fluorophenylamino)-6-[3-(7-oxa-2-azaspiro[3.5]-nonane-2-yl)-propoxy]-7-methoxyquinazoline]
24 | 0.01 to 0.1 µM | COc1cc2ncnc(Nc3cccc(Cl)c3F)c2cc1OCCCN1CC2(CNC(=O)C2)C1 [Example 33]
25 | 0.0001 to 0.01 µM | [2H]C([2H])([2H])Oc1cc2ncnc(Nc3ccc(F)c(Cl)c3)c2cc1OCCCN1CC2(C1)CN(C)C(=O)O2 [Example 98, 4-(3′-chloro-4′-fluorophenylamino)-6-[3-(7-methyl-5-oxa-2,7-diazaspiro[3.4]octane-6-ketone-2-yl)-propoxy]-7-deuterated methoxyquinazoline]
26 | > 1 µM | COc1cc2ncnc(Nc3ccc(F)c(Cl)c3)c2cc1OCCN1CCC2(CC1)CC(=O)N(C)C2 [Example 56, 4-(3′-chloro-4′-fluorophenylamino)-6-[2-(2-methyl-2,8-diazaspiro[4.5]decane-2-ketone-8-yl)-oxethyl]-7-methoxyquinazoline]
27 | 0.01 to 0.1 µM | C#Cc1cccc(Nc2ncnc3cc(OC)c(OCCCN4CCC5(CC4)CCN(C)C5=O)cc23)c1 [Example 44, 4-(3′-ethynylphenylamino)-6-[3-(2-methyl-2,8-diazaspiro[4.5]decane-3-ketone-8-yl)propoxy]-7-methoxyquinazoline]
28 | 0.01 to 0.1 µM | C#Cc1cccc(Nc2ncnc3cc(OC)c(OCCCN4CCC5(CCNC5=O)CC4)cc23)c1 [Example 72, 4-(3′-ethynylphenylamino)-6-[3-(2,8-diazaspiro[4.5]decane-1-ketone-8-yl)-propoxy]-7-methoxyquinazoline]
29 | 0.01 to 0.1 µM | COc1cc2ncnc(Nc3cccc(Cl)c3F)c2cc1OCCCN1CCC2(CC1)CC(=O)N(C)C2 [Example 31, 4-(3′-chloro-2′-fluorophenylamino)-6-[3-(2-methyl-2,8-diazaspiro[4.5]decane-3-ketone-8-yl)-propoxy]-7-methoxyquinazoline]
30 | 0.01 to 0.1 µM | COc1cc2ncnc(Nc3cccc(Cl)c3F)c2cc1OCCCN1CCC2(CCNC2=O)C1 (stereo not drawn) [Example 29, 4-(3′-chloro-2′-fluorophenylamino)-6-[3-(2,7-diazaspiro[4.4]nonane-1-ketone-7-yl)-propoxy]-7-methoxyquinazoline]
